Experimental data published in EP4725941A1, “ARYLAMIDE DERIVATIVE HAVING ANTITUMOR ACTIVITY” (priority 2020, dated 2021).
pIC50: −log10 of the molar value. Read-outs that look alike come from different tables or passages of the source.

What was measured:
MEK1 = biological target: T1, MEK1 (Homo sapiens, UniProt Q02750); experiment: MEK1-inhibiting activity, fluorescent polarization method (CRAF/MEK1/ERK2 cascade, IMAP); assay type: biochemical
T1 construct: purchased Thermo Fisher Scientific Inc. (MEK1, CRAF); Carna Biosciences, Inc. (ERK2)
T1 sequence (Q02750 whole entry): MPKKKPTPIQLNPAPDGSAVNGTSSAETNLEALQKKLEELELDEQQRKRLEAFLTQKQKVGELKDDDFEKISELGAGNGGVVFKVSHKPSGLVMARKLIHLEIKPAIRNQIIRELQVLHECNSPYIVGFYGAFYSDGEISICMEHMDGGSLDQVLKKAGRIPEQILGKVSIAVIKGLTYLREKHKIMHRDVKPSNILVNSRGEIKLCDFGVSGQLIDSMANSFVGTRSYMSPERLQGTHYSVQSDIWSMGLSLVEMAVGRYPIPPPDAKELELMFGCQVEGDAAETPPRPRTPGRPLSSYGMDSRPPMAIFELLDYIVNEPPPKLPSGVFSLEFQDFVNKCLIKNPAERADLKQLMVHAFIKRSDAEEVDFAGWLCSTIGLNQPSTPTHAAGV
Description: The MEK1-inhibiting activity of the compounds listed in Table 3 below were evaluated by the fluorescent polarization method as described below.

BRAF = biological target: T2, BRAF (Homo sapiens, UniProt P15056); experiment: BRAF-inhibiting activity, time-resolved fluorescence-fluorescence resonance energy transfer assay; assay type: biochemical
T2 construct: purchased Eurofins Genomics KK; (BRAF); Thermo Fisher Scientific Inc. (MEK1)
T2 sequence (P15056 417-766 limits assumed): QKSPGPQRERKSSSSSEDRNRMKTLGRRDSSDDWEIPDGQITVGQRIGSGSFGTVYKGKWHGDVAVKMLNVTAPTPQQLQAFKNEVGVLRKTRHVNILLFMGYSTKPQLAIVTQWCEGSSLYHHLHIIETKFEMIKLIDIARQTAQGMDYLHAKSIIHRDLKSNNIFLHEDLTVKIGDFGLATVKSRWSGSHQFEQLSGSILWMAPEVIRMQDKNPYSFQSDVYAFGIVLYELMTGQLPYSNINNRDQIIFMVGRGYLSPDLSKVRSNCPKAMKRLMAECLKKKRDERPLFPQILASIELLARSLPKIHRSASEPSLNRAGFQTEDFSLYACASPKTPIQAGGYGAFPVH
Description: The BRAF-inhibiting activity of the compounds listed in Table 3 below was evaluated by the time-resolved fluorescence-fluorescence resonance energy transfer assay as described below.

A549 = experiment: Cell proliferation-inhibiting activity (ATP in viable cells, CellTiter-Glo), A549; assay type: cell-based, human; conditions: read-out: A549 IC50
Calu-6 = experiment: Cell proliferation-inhibiting activity (ATP in viable cells, CellTiter-Glo), Calu-6; assay type: cell-based, human; conditions: read-out: Calu-6 IC50
NCI-H2122 = experiment: Cell proliferation-inhibiting activity (ATP in viable cells, CellTiter-Glo), NCI-H2122; assay type: cell-based, human; conditions: read-out: NCI-H2122 IC50
[1] = Human liver microsome stability; assay type: in vitro ADME; conditions: human liver microsomes, pH 7.4
[2] = A549, 96 h, human lung cancer cells, 4 days
[3] = Calu-6, 96 h, human lung cancer cells, 4 days
[4] = NCI-H2122, 96 h, human lung cancer cells, 4 days
[5] = human lung cancer cells, 4 days

SMILES | pIC50 (MEK1; Table 3, read-out: MEK1 IC50) | pIC50 (BRAF; read-out: BRAF IC50; Table 3) | pIC50 (A549; [2]) | pIC50 (Calu-6; [3]) | pIC50 (NCI-H2122; [4]) | microsomal CLint at 0.99 µM [1] | pIC50 (MEK1) | pIC50 (BRAF; Table 3; read-out: BRAF IC50) | pIC50 (A549; Homo sapiens, A549, 96 h) | pIC50 (Calu-6; Homo sapiens, Calu-6, 96 h) | pIC50 (NCI-H2122; Homo sapiens, NCI-H2122, 96 h) | pIC50 (A549; [5]) | pIC50 (Calu-6; [5]) | pIC50 (NCI-H2122; [5])
CNS(=O)(=O)Nc1nccc(Cc2cc(C(=O)NC3CC3C)c(Nc3ccc(I)cc3F)c(F)c2F)c1F (mixture of isomers) [Compound B-3, 3,4-Difluoro-2-(2-fluoro-4-iodoanilino)-5-[[3-fluoro-2-(methylsulfamoylamino)pyridin-4-yl]methyl]-N-(2-methylcyclopropyl)benzamide (mixture of 4 isomers)] | 7.09 | 8.40 | 8.70 | 7.85 | 9.00 | 22 µL/min/mg |  |  |  |  |  |  |  | 
CNS(=O)(=O)Nc1nccc(Cc2cc(C(=O)N[C@H]3C[C@H]3C)c(Nc3ccc(I)cc3F)c(F)c2F)c1F (racemic) [Compound B-4, 3,4-Difluoro-2-(2-fluoro-4-iodoanilino)-5-[[3-fluoro-2-(methylsulfamoylamino)pyridin-4-yl]methyl]-N-[(1S, 2R)-(+/-)-2-methylcyclopropyl]benzamide (racemate)] |  |  | 8.70 | 8.22 | 9.00 | 28 µL/min/mg | 7.72 | 8.30 |  |  |  |  |  | 
CNS(=O)(=O)Nc1nccc(Cc2cc(C(=O)N[C@@H]3C[C@H]3C)c(Nc3ccc(I)cc3F)c(F)c2F)c1F (racemic) [Compound B-5, 3,4-Difluoro-2-(2-fluoro-4-iodoanilino)-5-[[3-fluoro-2-(methylsulfamoylamino)pyridin-4-yl]methyl]-N-[(1R, 2R)-(+/-)-2-methylcyclopropyl]benzamide (racemate)] |  |  | 8.15 | 7.54 | 8.30 | 22 µL/min/mg | 7.03 | 8.22 |  |  |  |  |  | 
CNS(=O)(=O)Nc1nccc(Cc2cc(C(=O)NC3CC3(F)F)c(Nc3ccc(I)cc3F)c(F)c2F)c1F (racemic) [Compound B-6, (+/-)-N-(2,2-Difluorocyclopropyl)-3,4-difluoro-2-(2-fluoro-4-iodoanilino)-5-[[3-fluoro-2-(methylsulfamoylamino)pyridin-4-yl]methyl]benzamide (racemate)] |  |  | 8.70 | 7.80 | 9.00 | 20 µL/min/mg | 7.01 | 7.82 |  |  |  |  |  | 
CNS(=O)(=O)Nc1nccc(Cc2cc(C(N)=O)c(Nc3ccc(C4CC4)cc3F)c(F)c2F)c1F [Compound A-1, 2-(4-cyclopropyl-2-fluoroanilino)-3,4-difluoro-5-[[3-fluoro-2-(methylsulfamoylamino)pyridin-4-yl]methyl]benzamide] | 7.77 |  |  |  |  | 1 µL/min/mg |  | 9.00 | 7.59 | 7.19 | 8.30 |  |  | 
NS(=O)(=O)Nc1nccc(Cc2cc(C(=O)NC3CC3)c(Nc3ccc(I)cc3F)c(F)c2F)c1F [Compound A-3, N-Cyclopropyl-3,4-difluoro-2-(2-fluoro-4-iodoanilino)-5-[[3-fluoro-2-(sulfamoylamino)pyridin-4-yl]methyl]benzamide] | 7.51 | 8.30 | 7.60 | 7.55 | 7.89 | 10 µL/min/mg |  |  |  |  |  |  |  | 
CCNS(=O)(=O)Nc1nccc(Cc2cc(C(=O)NC3CC3)c(Nc3ccc(I)cc3F)c(F)c2F)c1F [Compound A-4, N-cyclopropyl-5-[[2-(ethylsulfamoylamino)-3-fluoropyridin-4-yl]methyl]-3,4-difluoro-2-(2-fluoro-4-iodoanilino)benzamide] | 7.77 | 8.70 | 8.30 | 8.15 | 9.00 | 21 µL/min/mg |  |  |  |  |  |  |  | 
O=C(NC1CC1)c1cc(Cc2ccnc(NS(=O)(=O)NC3CC3)c2F)c(F)c(F)c1Nc1ccc(I)cc1F [Compound A-5, N-Cyclopropyl-5-[[2-(cyclopropylsulfamoylamino)-3-fluoropyridin-4-yl]methyl]-3,4-difluoro-2-(2-fluoro-4-iodoanilino)benzamide] | 8.00 | 8.30 | 8.30 | 7.92 | 9.00 | 36 µL/min/mg |  |  |  |  |  |  |  | 
O=C(NC1CC1)c1cc(Cc2ccnc(NS(=O)(=O)NCCF)c2F)c(F)c(F)c1Nc1ccc(I)cc1F [Compound A-6, N-cyclopropyl-3,4-difluoro-5-[[3-fluoro-2-(2-fluoroethylsulfamoylamino)pyridin-4-yl]methyl]-2-(2-fluoro-4-iodoanilino)benzamide] | 7.92 | 8.00 | 7.77 | 7.72 | 8.52 | 20 µL/min/mg |  |  |  |  |  |  |  | 
CNC(=O)c1cc(Cc2ccnc(NS(=O)(=O)NC)c2F)c(F)c(F)c1Nc1ccc(I)cc1F [Compound A-7, 3,4-Difluoro-2-(2-fluoro-4-iodoanilino)-5-[[3-fluoro-2-(methylsulfamoylamino)pyridin-4-yl]methyl]-N-methylbenzamide] | 7.74 | 8.30 | 8.70 | 7.74 | 9.00 | 28 µL/min/mg |  |  |  |  |  |  |  | 
CCS(=O)(=O)Nc1nccc(Cc2cc(C(=O)NC3CC3)c(Nc3ccc(I)cc3F)c(F)c2F)c1F [Compound A-39] | 7.39 | 7.85 | 7.52 | 7.10 | 8.15 |  |  |  |  |  |  |  |  | 
COCC1(S(=O)(=O)Nc2cccc(Cc3cc(C(=O)NOC)c(Nc4ccc(I)cc4F)c(F)c3F)c2F)CC1 [Compound E-3] | 7.48 |  |  |  |  |  |  | 8.30 |  |  |  | 8.40 | 8.15 | 8.70
CS(=O)(=O)Nc1cccc(Cc2cc(C(N)=O)c(Nc3ccc(I)cc3F)c(F)c2F)c1F [Compound E-13, 3,4-difluoro-2-(2-fluoro-4-iodoanilino)-5-[[2-fluoro-3-(methanesulfonamide)phenyl]methyl]benzamide] |  | 9.00 |  |  |  |  |  |  |  |  |  | 7.52 | 7.08 | 8.22
CCS(=O)(=O)Nc1cccc(Cc2cc(C(=O)NOC(C)(C)C)c(Nc3ccc(I)cc3F)n(C)c2=O)c1F [Compound K-9] | 7.64 |  |  |  |  |  |  | 8.10 |  |  |  | 7.77 | 7.47 | 8.10
CNS(=O)(=O)Nc1nccc(Cn2cc(C(=O)NOC)c(Nc3ccc(I)cc3F)c(C)c2=O)c1F [Compound P-7, 4-(2-Fluoro-4-iodoanilino)-1-[[3-fluoro-2-(methylsulfamoylamino)pyridin-4-yl]methyl]-N-methoxy-5-methyl-6-oxopyridine-3-carboxamide] | 8.15 | 8.15 |  | 7.14 | 8.15 | 12 µL/min/mg |  |  |  |  |  |  |  | 
NC(=O)c1c(Nc2ccc(I)cc2F)cncc1Oc1cccc(NS(=O)(=O)C2CC2)c1 [Ref-4, reference compound] | 7.96 |  | 8.70 | 7.74 | 8.70 | 32 µL/min/mg |  |  |  |  |  |  |  | 
CNS(=O)(=O)Nc1nccc(Cc2c(C)c3ccc(Oc4ncccn4)cc3oc2=O)c1F [Ref-5, 3-[[3-Fluoro-2-(methylsulfamoylamino)pyridin-4-yl]methyl]-4-methyl-7-pyrimidin-2-yloxychromen-2-one, reference compound] |  | 7.96 | 6.95 | 6.38 | 7.57 | < 1 µL/min/mg |  |  |  |  |  |  |  | 
